Results reported in PMC9284121, “Florfenicol-Polyarginine Conjugates Exhibit Promising Antibacterial Activity Against Resistant Strains” (Frontiers in Chemistry, 2022).
≈ marks a conversion by molar mass, not a printed value. Where two headings read alike, the source gives them in different places. One block for each molecule: values may come before it.

Legend:
[1] = test system: E. coli clinical strain 2018XJ105; test: microbe, parasite or virus in culture; assay type: cell-based, Escherichia coli
Experimental: (§1) All the florfenicol-polyarginine conjugates were tested against Gram-positive and Gram-negative bacteria, including MRSA (ATCC 43300), S. aureus (ATCC 25923), E. coli (ATCC 25922), clinical strains of E. coli (2019XJ06, 2019XJ25, 2018XJ108, 2018XJ105, 2018XJ30) and clinical strains of florfenicol resistant E. coli (2017XJ30, 2019XJ20).
(§2) Gram-negative E. coli (ATCC 25922), clinical strains of E. coli (2019XJ06, 2019XJ25, 2018XJ108, 2018XJ105, 2018XJ30) and clinical strains of florfenicol resistant E. coli (2017XJ30, 2019XJ20) and Gram-positive MRSA (ATCC 43300) and S. aureus (ATCC 25923) were maintained in 50% glycerol at −80°C up to the time of use. The bacterial strains were cultured in Muller-Hinton broth (Guangdong Huan Kai Microbial Sci. &Tech. Co., Ltd. in China) media. Mueller-Hinton agar (Guangdong Huan Kai Microbial Sci. & Tech. Co., Ltd. in China) was used as growth medium in solid media.
(§3) CLSI guidelines were followed for determining MICs of all florfenicol-polyarginine conjugates by the broth microdilution method. The required bacterial (E. coli, S. aureus and MRSA) single colony was inoculated into Muller-Hinton broth (MHB) and cultured for 4–6 h. And then, the bacteria were adjusted to 10^6 CFU/ml in cultures. All compounds were prepared into a stock solution at a concentration of 0.1 mol/L with DMSO. The stock solutions were then diluted to required concentration (100, 50, 25, 12.5, 6.25, 3.125, 1.56, 0.78, 0.39 μmol/L) with MHB media. Subsequently, a 96 well plate was filled with these dilutions and 10^6 CFU/ml bacterial suspension. The diluted compounds of different concentrations (100 µl) were first added to 96 well plate, and then 100 µl bacterial dilutions (10^6 CFU/ml) was added. The negative and positive controls were 200 µl of MHB media and 100 µl of bacterial suspension combined with 100 µl of MHB media, respectively. The experiment of each compound was repeated three times, and each experiment was at least twice repeated. The 96 well plates were incubated at 37°C for 16–24 h. MIC indicated antibacterial activity. Florfenicol was used as a control drug.

[2] = test system: E. coli clinical strain 2018XJ108; test: microbe, parasite or virus in culture; assay type: cell-based, Escherichia coli
Experimental: as §1, §2, §3

[3] = test system: E. coli clinical strain 2018XJ30; test: microbe, parasite or virus in culture; assay type: cell-based, Escherichia coli
Experimental: as §1, §2, §3

[4] = test system: E. coli clinical strain 2019XJ06; test: microbe, parasite or virus in culture; assay type: cell-based, Escherichia coli
Experimental: as §1, §2, §3

[5] = test system: E. coli clinical strain 2019XJ25; test: microbe, parasite or virus in culture; assay type: cell-based, Escherichia coli
Experimental: as §1, §2, §3

[6] = test system: E.coli (ATCC 25922); test: microbe, parasite or virus in culture; assay type: cell-based, Escherichia coli
Experimental: as §1, §2, §3

[7] = test system: florfenicol resistant E. coli clinical strain 2017XJ30; test: microbe, parasite or virus in culture; assay type: cell-based, Escherichia coli
Experimental: as §1, §2, §3

[8] = test system: florfenicol resistant E. coli clinical strain 2019XJ20; test: microbe, parasite or virus in culture; assay type: cell-based, Escherichia coli
Experimental: as §1, §2, §3

[9] = test system: S. aureus (ATCC 292130); test: microbe, parasite or virus in culture; assay type: cell-based, Staphylococcus aureus
[10] = test system: MRSA (ATCC 43300); test: microbe, parasite or virus in culture; assay type: cell-based, methicillin-resistant S. aureus
Experimental: as §1, §2, §3

[11] = test system: 10 strains tested (E. coli, S. aureus, MRSA, clinical E. coli strains); test: microbe, parasite or virus in culture; assay type: cell-based
Experimental: as §1, §2, §3

[12] = test system: E. coli; test: Propensity of bacterial resistance development (serial passage at 0.5 MIC); assay type: cell-based, Escherichia coli
Experimental: It is crucial to evaluate the potential emergence of resistance from these compounds. […] The process was repeated for 16 passages. […] However, E. coli became resistant to FFC after only a few days. Therefore, these conjugates can be to combat drug-resistant bacteria.
Compound E6 was used to evaluate the tendency of developing bacterial resistance towards the florfenicol-polyarginine conjugates. The control antibiotic florfenicol was chosen for E. coli. MIC of E6 and florfenicol for 24 h were determined against E. coli., and then 0.5 MIC of E6 and florfenicol was challenged repeatedly against E. coli. After the initial MIC experiment, serial passage was investigated by transferring the growing bacterial suspension at sub-MIC of the compounds (MIC/2) and MIC in every passage was determined again. The process was repeated for 16 passages. The MICs for E6 and florfenicol corresponding to days were draw into figure to determine the propensity of bacterial resistance development.

MIC ([1]; clinical strain 2018XJ105): 50 µM (≈ 63.3 µg/mL)
MIC ([2]; clinical strain 2018XJ108): 50 µM (≈ 63.3 µg/mL)
MIC ([3]; clinical strain 2018XJ30): 50 µM (≈ 63.3 µg/mL)
MIC ([4]; clinical strain 2019XJ06): 50 µM (≈ 63.3 µg/mL)
MIC ([5]; clinical strain 2019XJ25): 50 µM (≈ 63.3 µg/mL)
MIC ([6]; ATCC 25922): 50 µM (≈ 63.3 µg/mL)
MIC ([7]; florfenicol resistant clinical strain 2017XJ30): 50 µM (≈ 63.3 µg/mL)
MIC ([8]; florfenicol resistant clinical strain 2019XJ20): 50 µM (≈ 63.3 µg/mL)
MIC ([9]; ATCC 292130): 25 µM (≈ 31.7 µg/mL)
MIC ([10]; ATCC 43300): 25 µM (≈ 31.7 µg/mL)
MIC [11]: 25 to 100 µM
Structure (SMILES): N=C(N)NCCC[C@H](NC(=O)[C@H](CCCNC(=N)N)NC(=O)[C@H](CCCNC(=N)N)NC(=O)[C@H](CCCNC(=N)N)NC(=O)[C@H](CCCNC(=N)N)NC(=O)[C@H](CCCNC(=N)N)NC(=O)[C@H](CCCNC(=N)N)NC(=O)[C@@H](N)CCCNC(=N)N)C(N)=O [Compound D6]

Structure (SMILES): CS(=O)(=O)c1ccc([C@@H](O)[C@@H](CF)NC(=O)C(Cl)Cl)cc1 [Florfenicol]
MIC ([1]; Escherichia coli, clinical E. coli 2018XJ105, MHB, read-out: MIC): 6.25 µM (≈ 2.24 µg/mL)
MIC ([2]; Escherichia coli, clinical E. coli 2018XJ108, MHB, read-out: MIC): 6.25 µM (≈ 2.24 µg/mL)
MIC ([3]; Escherichia coli, clinical E. coli 2018XJ30, MHB, read-out: MIC): 6.25 µM (≈ 2.24 µg/mL)
MIC ([4]; Escherichia coli, clinical E. coli 2019XJ06, MHB, read-out: MIC): 6.25 µM (≈ 2.24 µg/mL)
MIC ([5]; Escherichia coli, clinical E. coli 2019XJ25, MHB, read-out: MIC): 6.25 µM (≈ 2.24 µg/mL)
MIC ([6]; Escherichia coli, ATCC25922, E.coli (ATCC 25922), MHB, read-out: MIC): 6.25 µM (≈ 2.24 µg/mL)
MIC ([7]; Escherichia coli, florfenicol resistant E. coli 2017XJ30, MHB, read-out: MIC): > 100 µM
MIC ([8]; Escherichia coli, florfenicol resistant E. coli 2019XJ20, MHB, read-out: MIC): > 100 µM
MIC ([9]; Staphylococcus aureus, ATCC292130, S. aureus (ATCC 292130), MHB, read-out: MIC): 6.25 µM (≈ 2.24 µg/mL)
MIC ([10]; Staphylococcus aureus, MRSA (ATCC 43300), MHB, read-out: MIC): 6.25 µM (≈ 2.24 µg/mL)
change of MIC after 16 passages [12]: 2 fold
